Test results as given in ChEMBL document CHEMBL1201862, “PubChem BioAssay data set” (2004).
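Cells were grown in 96-well plates and exposed to each compound for 48 hours at five concentrations; endpoints were interpolated linearly between bracketing concentrations, or set to the highest concentration if not reached. GI50: concentration for 50% inhibition of growth.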 Calls of active or inactive are those of the source. Rule as the data show it: active = GI50 up to about 1.1 µM and inactive = higher. *1 amine or outer side, *2 acyl side, *3 side chain or, on linkers, in order; H or OH if unused. Where a SMILES comes first, the peptide text is derived from it. [ ]: non-standard residue; d: D form. The star is where a group is joined. ξ: configuration not given here. X53 = CC(C)C[C@H](N[*:1])C1=N[C@H](C(=O)[*:2])CS1; Ile(3ξ) = CCC(C)[C@H](N)C(=O)O; Allyl(1,1-Me2) = C=CC(C)(C)*

How the values were obtained:
Experiment in all cases: growth of human tumour cells (NCI), 48 h
786-0 = tested on: 786-0
ACHN = tested on: ACHN
DLD-1 = tested on: DLD-1
HCT-15 = tested on: HCT-15
HT-29 = tested on: HT-29
KM12 = tested on: KM12
NCI-H460 = tested on: NCI-H460
OVCAR-5 = tested on: OVCAR-5
RXF 393 = tested on: RXF 393
SF-539 = tested on: SF-539
SK-MEL-2 = tested on: SK-MEL-2
SN12C = tested on: SN12C
SNB-19 = tested on: SNB-19
LXFL 529 = tested on: LXFL 529
M19-MEL = tested on: M19-MEL
BT-549 = tested on: BT-549
DU-145 = tested on: DU-145
Hs-578T = tested on: Hs-578T
MDA-MB-231 = tested on: MDA-MB-231

Compound	GI50 (786-0)	GI50 (ACHN)	GI50 (DLD-1)	GI50 (HCT-15) [µM]	GI50 (HT-29)	GI50 (KM12)	GI50 (NCI-H460)	GI50 (OVCAR-5)	GI50 (RXF 393)	GI50 (SF-539)	GI50 (SK-MEL-2)	GI50 (SN12C)	GI50 (SNB-19)	GI50 (LXFL 529)	GI50 (M19-MEL)	GI50 (BT-549)	GI50 (DU-145)	GI50 (Hs-578T)	GI50 (MDA-MB-231)
CCOC(=O)c1[nH]c2cc(OC)c(OC)cc2c1CN(C)C	> 100 µM (inactive)	> 100 µM (inactive)	> 100 µM (inactive)	> 100	> 100 µM (inactive)	> 100 µM (inactive)	> 100 µM (inactive)	> 100 µM (inactive)	> 100 µM (inactive)	> 100 µM (inactive)	> 100 µM (inactive)	> 100 µM (inactive)	> 100 µM (inactive)	–	–	–	–	–	–
CCOC(=O)C(C(=O)Cc1ccccc1)c1ccccc1 (stereo not drawn)	> 100 µM (inactive)	> 100 µM (inactive)	> 100 µM (inactive)	> 100	> 100 µM (inactive)	> 100 µM (inactive)	> 100 µM (inactive)	> 100 µM (inactive)	–	> 100 µM (inactive)	> 100 µM (inactive)	> 100 µM (inactive)	> 100 µM (inactive)	> 100 µM (inactive)	> 100 µM (inactive)	–	–	–	–
O=c1[nH]nc(-c2ccccc2)n1/N=C/c1ccccc1O	29.2 µM (inactive)	63.2 µM (inactive)	–	> 100	> 100 µM (inactive)	47 µM (inactive)	> 100 µM (inactive)	> 100 µM (inactive)	29.7 µM (inactive)	78.2 µM (inactive)	> 100 µM (inactive)	> 100 µM (inactive)	35.5 µM (inactive)	–	–	> 100 µM (inactive)	> 100 µM (inactive)	29.3 µM (inactive)	70 µM (inactive)
FC(F)(F)c1ccc(C2=N/S(c3ccccc3)=N\C(c3ccc(C(F)(F)F)cc3)=N/S(c3ccccc3)=N\2)cc1 (stereo not drawn)	80 µM (inactive)	> 100 µM (inactive)	–	> 100	> 100 µM (inactive)	> 100 µM (inactive)	> 100 µM (inactive)	> 100 µM (inactive)	> 100 µM (inactive)	> 100 µM (inactive)	> 100 µM (inactive)	> 100 µM (inactive)	> 100 µM (inactive)	–	–	> 100 µM (inactive)	> 100 µM (inactive)	> 100 µM (inactive)	> 100 µM (inactive)
C=CC(C)(C)OC[C@@H]1NC(=O)CNC(=O)[C@@H]2CCCN2C(=O)[C@H](C(C)CC)NC(=O)[C@@H]2CSC(=N2)[C@H](CC(C)C)NC1=O (stereo partly drawn) (cyclo(GS(Allyl(1,1-Me2))[X53][Ile(3ξ)]P))	> 100 µM (inactive)	76.6 µM (inactive)	–	58.1	84.7 µM (inactive)	55.2 µM (inactive)	37.6 µM (inactive)	> 100 µM (inactive)	> 100 µM (inactive)	> 100 µM (inactive)	> 100 µM (inactive)	> 100 µM (inactive)	> 100 µM (inactive)	–	–	23.1 µM (inactive)	77.6 µM (inactive)	23.2 µM (inactive)	> 100 µM (inactive)
CC(C)N1CCN(c2ccc(OCC3COC(Cn4cncn4)(c4ccc(Cl)cc4Cl)O3)cc2)CC1 (stereo not drawn) [TERCONAZOLE]	4.06 µM (inactive)	20.6 µM (inactive)	–	9.53	3.62 µM (inactive)	13.2 µM (inactive)	14.6 µM (inactive)	15 µM (inactive)	11.6 µM (inactive)	13.3 µM (inactive)	14.7 µM (inactive)	15.8 µM (inactive)	> 42.1 µM (inactive)	–	–	14.4 µM (inactive)	16.3 µM (inactive)	12.2 µM (inactive)	14 µM (inactive)
COc1ccc(-c2oc3c(OC)c(OC)cc(O)c3c(=O)c2OC)cc1	> 100 µM (inactive)	> 100 µM (inactive)	–	> 100	> 100 µM (inactive)	> 100 µM (inactive)	> 100 µM (inactive)	> 100 µM (inactive)	> 100 µM (inactive)	28.8 µM (inactive)	> 100 µM (inactive)	> 100 µM (inactive)	> 100 µM (inactive)	–	–	> 100 µM (inactive)	> 100 µM (inactive)	58.3 µM (inactive)	69.2 µM (inactive)
CC(C)=CCC[C@@H](C)c1c2nc3ccccc3[nH]c-2c(C)c(=O)c1O	1.75 µM (inactive)	0.568 µM (active)	–	0.236	5.32 µM (inactive)	2.45 µM (inactive)	0.671 µM (active)	3.52 µM (inactive)	1.14 µM (inactive)	2.08 µM (inactive)	1.59 µM (inactive)	1.24 µM (inactive)	2.5 µM (inactive)	–	–	2.63 µM (inactive)	1.61 µM (inactive)	2.28 µM (inactive)	1.73 µM (inactive)
COc1cc2c(cc1O)NC(=O)[C@@H]1CCCN1C2=O	> 100 µM (inactive)	> 100 µM (inactive)	–	> 100	> 100 µM (inactive)	> 100 µM (inactive)	> 100 µM (inactive)	> 100 µM (inactive)	> 100 µM (inactive)	> 100 µM (inactive)	> 100 µM (inactive)	> 100 µM (inactive)	> 100 µM (inactive)	–	–	> 100 µM (inactive)	> 100 µM (inactive)	24 µM (inactive)	> 100 µM (inactive)
c1ccc2c(Cc3[nH]c4ccccc4c3Cc3c[nH]c4ccccc34)c[nH]c2c1	1.73 µM (inactive)	14.5 µM (inactive)	–	2.76	2.52 µM (inactive)	2.09 µM (inactive)	1.91 µM (inactive)	2.85 µM (inactive)	1.94 µM (inactive)	2.56 µM (inactive)	2.36 µM (inactive)	1.77 µM (inactive)	4.93 µM (inactive)	–	–	5.57 µM (inactive)	1.8 µM (inactive)	1.47 µM (inactive)	2.12 µM (inactive)
COc1cccc(CCNC(=O)Cc2ccccc2CCO)c1	> 100 µM (inactive)	> 100 µM (inactive)	–	> 100	> 100 µM (inactive)	> 100 µM (inactive)	> 100 µM (inactive)	> 100 µM (inactive)	> 100 µM (inactive)	> 100 µM (inactive)	> 100 µM (inactive)	> 100 µM (inactive)	> 100 µM (inactive)	–	–	> 100 µM (inactive)	> 100 µM (inactive)	> 100 µM (inactive)	> 100 µM (inactive)
Cc1cc(-c2nc3cc(O)ccc3s2)ccc1N	37 µM (inactive)	22.5 µM (inactive)	–	41.2	21.5 µM (inactive)	23.2 µM (inactive)	29 µM (inactive)	24.7 µM (inactive)	27.5 µM (inactive)	25.5 µM (inactive)	28.4 µM (inactive)	28.8 µM (inactive)	33.7 µM (inactive)	–	–	45.8 µM (inactive)	39.8 µM (inactive)	35.2 µM (inactive)	30 µM (inactive)
Cc1cc(OCc2nnc3n2S(=O)(=O)c2ccccc2N3C)ccc1Cl	11.8 µM (inactive)	19.9 µM (inactive)	–	> 100	52 µM (inactive)	> 100 µM (inactive)	39.9 µM (inactive)	> 100 µM (inactive)	21.2 µM (inactive)	16.7 µM (inactive)	> 100 µM (inactive)	32.4 µM (inactive)	19.3 µM (inactive)	–	–	18.2 µM (inactive)	56 µM (inactive)	40.8 µM (inactive)	16.3 µM (inactive)
